Results taken from article PMC6874683, “Pyrrothiogatain acts as an inhibitor of GATA family proteins and inhibits Th2 cell differentiation in vitro” (Scientific Reports, 2019).
Where “and” joins values, the source holds several entries; their conditions need not be identical. Identical values can stand only once.

Tests used:
GATA2 = target: T1, GATA2 (Homo sapiens, UniProt P23769); assay: AlphaScreen DNA-binding assay, GATA2; settings: pyrrothiogatain 0 to 200 µM
T1 construct: we tried to synthesize their full-length proteins using the cell-free system; made in house; host or cells: wheat cell-free protein synthesis system (WEPRO1240 kit)
T1 sequence (P23769 1-480): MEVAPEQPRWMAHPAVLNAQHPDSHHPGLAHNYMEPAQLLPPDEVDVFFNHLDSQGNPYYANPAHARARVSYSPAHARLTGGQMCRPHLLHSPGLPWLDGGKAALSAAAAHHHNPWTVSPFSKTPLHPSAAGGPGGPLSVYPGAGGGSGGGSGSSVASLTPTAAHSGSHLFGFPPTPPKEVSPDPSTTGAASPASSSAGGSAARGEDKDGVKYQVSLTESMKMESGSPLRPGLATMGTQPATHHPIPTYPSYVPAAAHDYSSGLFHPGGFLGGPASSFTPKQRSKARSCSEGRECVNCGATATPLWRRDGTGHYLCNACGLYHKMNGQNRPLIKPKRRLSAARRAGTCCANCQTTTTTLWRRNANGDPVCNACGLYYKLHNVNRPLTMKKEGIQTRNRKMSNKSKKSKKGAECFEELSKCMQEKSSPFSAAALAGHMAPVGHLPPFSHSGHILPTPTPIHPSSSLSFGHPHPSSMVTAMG
Procedure: For the protein-DNA binding assay on a 384-well AlphaPlate (Perkin Elmer), 10 μL of bait protein mixture containing 1 µL FLAG-tagged protein in AlphaScreen Buffer (100 mM Tris-HCl (pH 8.0), 150 mM NaCl, 0.1% Tween 20, and 1 mg/mL BSA) and 5 µL biotinylated oligonucleotide (0–10 µM final concentration) in AlphaScreen Buffer were dispended into the AlphaPlate. Then, the plate was incubated at 26 °C for 1 h. After incubation, 10 μL of the detection mixture containing 0.4 µg/mL Anti-DYKDDDDK antibody (1E6, Wako), 0.1 μL streptavidin-conjugated AlphaScreen donor beads, and 0.1 μL protein A-conjugated AlphaScreen acceptor beads in AlphaScreen Buffer was mixed and incubated at 26 °C for 1 h, and then, the AlphaScreen signal was detected using an EnVision device with the AlphaScreen signal detection program (PerkinElmer).
For the AlphaScreen-based chemical library screening, we used a diverse set of 9,600 synthesized chemicals established by the Drug Discovery Initiative (The University of Tokyo, Tokyo, Japan). All chemical compounds (10 mM) were dissolved in DMSO, and were pre-dispensed into a 384-well Alphaplate (250 nL/well). […] The AlphaScreen signal was detected using an EnVision device with the AlphaScreen signal detection program (PerkinElmer). […]

GATA3-SOX4 interaction = target: T2, GATA3-SOX4 interaction (Homo sapiens, UniProt P23771); assay: AlphaScreen binding assay of GATA3 and SOX4; settings: pyrrothiogatain 0 to 100 µM
T2 construct: we synthesized the recombinant full-length GATA3 protein with an N-terminal FLAG tag using the wheat cell-free system; made in house; host or cells: wheat cell-free protein synthesis system (WEPRO1240 kit), BirA added for biotinylation
Procedure: The GATA3 protein has been reported to directly interact with SOX4[22]. We next investigated whether pyrrothiogatain interrupted the interaction between GATA3 and SOX4. […] Interaction between biotin-labelled SOX4 and FLAG-GATA3 was analysed by the AlphaScreen system (Fig. 4B).
Figure 4 Pyrrothiogatain inhibits the GATA3–SOX4 interaction. (A) Immunoblot analysis of biotin fused recombinant SOX4 (Biotin-SOX4) synthesized by the wheat cell-free system. The whole translational mixture (W) and the supernatant (S) were analysed using an anti-biotin antibody. (B) A schematic diagram of the binding assay to detect the direct binding between GATA3 and SOX4. When FLAG-tagged GATA3 binds with biotin fused SOX4, AlphaScreen beads generate a luminescent signal. (C) The binding assay of GATA3 and SOX4. The luminescence signals were detected by AlphaScreen technology. FLAG-DHFR was used as a control. (D) The inhibition assay of the binding of GATA3 and SOX4 in the presence of various concentrations of pyrrothiogatain (0 to 100 µM). The binding activity was calculated from the AlphaScreen signal. (E) The binding of recombinant GATA3 with SOX4 in the presence of pyrrothiogatain (0 to 100 µM) was assessed by immunoprecipitation assay. […] In (C,D), all data are expressed as individual points of three independent experiments with error bars indicating standard deviation.

T2 sequence (P23771 whole entry): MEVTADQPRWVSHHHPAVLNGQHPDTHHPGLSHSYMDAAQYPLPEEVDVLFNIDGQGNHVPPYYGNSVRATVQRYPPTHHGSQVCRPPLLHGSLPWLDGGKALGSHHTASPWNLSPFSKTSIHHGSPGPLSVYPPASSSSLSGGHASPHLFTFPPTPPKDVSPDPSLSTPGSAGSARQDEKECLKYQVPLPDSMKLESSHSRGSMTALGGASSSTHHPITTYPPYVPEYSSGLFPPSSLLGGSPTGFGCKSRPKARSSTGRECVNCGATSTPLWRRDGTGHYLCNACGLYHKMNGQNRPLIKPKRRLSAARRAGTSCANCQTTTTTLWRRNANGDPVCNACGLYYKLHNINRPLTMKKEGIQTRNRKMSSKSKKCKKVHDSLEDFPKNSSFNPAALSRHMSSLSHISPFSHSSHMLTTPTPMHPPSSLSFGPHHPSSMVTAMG

- IC50 (GATA2): ~50 µM and 45 µM
- IC50 (GATA3-SOX4 interaction): 95.2 µM
Compound: Cc1ccc(C)n1-c1ccsc1C(=O)O [Pyrrothiogatain, 3-(2,5-dimethyl-1H-pyrrol-1-yl)thiophene-2-carboxylic acid]
